{"source": "patent US20120148690A1", "about": "“SKIN BARRIER FUNCTION RECOVERY ACCELERATOR” (SHISEIDO COMPANY, LTD., priority 2010, published 2012)", "key": {"TRPA1 [1]": {"target": "T1, TRPA1 (Mus musculus, UniProt Q8BLA8)", "T1 construct": "TRPA1 in mouse epidermis was determined to positively immunostained; from tissue; host or cells: skin (epidermis) of living male HR-1 hairless mice", "T1 sequence (Q8BLA8 whole entry)": "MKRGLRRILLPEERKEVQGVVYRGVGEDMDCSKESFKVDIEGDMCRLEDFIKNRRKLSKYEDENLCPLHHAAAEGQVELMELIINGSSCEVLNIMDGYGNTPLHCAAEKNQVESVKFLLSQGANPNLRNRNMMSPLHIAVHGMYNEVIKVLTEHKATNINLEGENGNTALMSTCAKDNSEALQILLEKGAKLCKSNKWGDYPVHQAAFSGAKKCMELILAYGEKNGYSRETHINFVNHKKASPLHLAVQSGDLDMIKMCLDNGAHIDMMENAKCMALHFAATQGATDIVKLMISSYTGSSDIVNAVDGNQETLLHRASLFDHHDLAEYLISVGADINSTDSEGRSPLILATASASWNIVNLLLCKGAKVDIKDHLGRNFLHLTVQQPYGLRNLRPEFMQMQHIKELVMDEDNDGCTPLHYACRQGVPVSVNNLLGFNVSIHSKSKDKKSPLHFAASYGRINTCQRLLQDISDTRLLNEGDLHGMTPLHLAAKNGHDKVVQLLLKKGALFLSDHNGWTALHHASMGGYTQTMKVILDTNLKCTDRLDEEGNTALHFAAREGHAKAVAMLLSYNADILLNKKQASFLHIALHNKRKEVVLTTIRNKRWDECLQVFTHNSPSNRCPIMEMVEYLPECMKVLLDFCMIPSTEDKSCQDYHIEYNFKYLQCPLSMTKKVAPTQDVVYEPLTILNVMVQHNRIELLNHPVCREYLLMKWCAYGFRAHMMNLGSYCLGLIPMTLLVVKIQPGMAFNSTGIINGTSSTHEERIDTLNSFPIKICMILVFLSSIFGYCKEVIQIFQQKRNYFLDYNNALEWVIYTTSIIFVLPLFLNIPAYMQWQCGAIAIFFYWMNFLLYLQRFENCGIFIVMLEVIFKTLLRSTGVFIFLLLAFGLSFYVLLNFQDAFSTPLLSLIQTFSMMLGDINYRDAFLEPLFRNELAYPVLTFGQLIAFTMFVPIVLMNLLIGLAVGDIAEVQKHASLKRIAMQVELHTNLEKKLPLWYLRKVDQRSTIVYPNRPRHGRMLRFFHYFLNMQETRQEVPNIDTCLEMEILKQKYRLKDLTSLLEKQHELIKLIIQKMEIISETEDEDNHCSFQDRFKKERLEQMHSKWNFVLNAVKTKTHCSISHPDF", "test": "Barrier recovery after tape stripping, measured by transepidermal water loss (TEWL)", "type": "in vivo, hairless mice", "details": "for Barrier recovery (TEWL recovery rate): local application of 100 μl of 0.5 mM agonist solution immediately after tape stripping", "experimental": "Male hairless mice age 7 to 10 weeks (HR-1, Hoshino Laboratory Animals, Inc., Japan) were used in all experiments. Measurement of skin barrier function, barrier destruction and application of test samples were carried out while the animals were anesthetized with Nembutal.\nPermeability barrier function was evaluated on the basis of measurement results for transepidermal water loss (TEWL) obtained using an electrical moisture analyzer (Meeco Inc.) in the manner previously described (Denda, et al., J. Invest. Dermatol., 111, 858-863 (1998): Non-Patent Document 10). In the barrier recovery experiment, treatment was carried out on the animals consisting of repeatedly carrying out tape stripping on skin on both sides of the abdomen until TEWL reached 7 to 10 mg/cm^2/hr. The effects of each treatment were investigated by measuring at two locations on the sides of the abdomen using four mice. Next, TEWL values at the same sites were measured at 1, 3, 6 and 24 hours after barrier destruction. In order to avoid the effects of circadian rhythm, the speed of barrier recovery was investigated immediately after destroying the skin barrier between the hours of 7:00 AM and 8:00 AM. The results for barrier recovery were expressed in terms of recovery rate (%). This is because the degree of barrier destruction varies from day to day. Recovery rate was calculated for each mouse using the following formula:\n[(TEWL immediately after barrier destruction−TEWL at indicated time)/(TEWL immediately after barrier destruction−TEWL basal value)]×100%\nThe effects of TRPA1 agonist on undamaged skin of hairless mice were first evaluated. The skin permeability barrier was destroyed by tape stripping followed immediately thereafter by application of 100 μl of agonist solution. […] Next, the surface of the skin on one side of the abdomen was chilled (10 to 15° C.) for 1 minute using a cold insulator. The other side of the abdomen was maintained at 35 to 36° C. using a heating pad. The temperatures of both sides of the abdomen were monitored with a thermometer (Data Logger Thermometer MT-309, Mother Tool Co., Ltd.)."}, "TRPA1 [2]": {"target": "T1, TRPA1", "test": "Electron microscopy of lamellar body secretion between stratum corneum and stratum granulosum", "type": "in vivo, hairless mice", "details": "pretreatment with antagonist; short exposure to low temperature; FIG. 4c"}, "TRPV1": {"target": "TRPV1 (Homo sapiens, UniProt Q8NER1)", "sequence (Q8NER1 whole entry, species assumed)": "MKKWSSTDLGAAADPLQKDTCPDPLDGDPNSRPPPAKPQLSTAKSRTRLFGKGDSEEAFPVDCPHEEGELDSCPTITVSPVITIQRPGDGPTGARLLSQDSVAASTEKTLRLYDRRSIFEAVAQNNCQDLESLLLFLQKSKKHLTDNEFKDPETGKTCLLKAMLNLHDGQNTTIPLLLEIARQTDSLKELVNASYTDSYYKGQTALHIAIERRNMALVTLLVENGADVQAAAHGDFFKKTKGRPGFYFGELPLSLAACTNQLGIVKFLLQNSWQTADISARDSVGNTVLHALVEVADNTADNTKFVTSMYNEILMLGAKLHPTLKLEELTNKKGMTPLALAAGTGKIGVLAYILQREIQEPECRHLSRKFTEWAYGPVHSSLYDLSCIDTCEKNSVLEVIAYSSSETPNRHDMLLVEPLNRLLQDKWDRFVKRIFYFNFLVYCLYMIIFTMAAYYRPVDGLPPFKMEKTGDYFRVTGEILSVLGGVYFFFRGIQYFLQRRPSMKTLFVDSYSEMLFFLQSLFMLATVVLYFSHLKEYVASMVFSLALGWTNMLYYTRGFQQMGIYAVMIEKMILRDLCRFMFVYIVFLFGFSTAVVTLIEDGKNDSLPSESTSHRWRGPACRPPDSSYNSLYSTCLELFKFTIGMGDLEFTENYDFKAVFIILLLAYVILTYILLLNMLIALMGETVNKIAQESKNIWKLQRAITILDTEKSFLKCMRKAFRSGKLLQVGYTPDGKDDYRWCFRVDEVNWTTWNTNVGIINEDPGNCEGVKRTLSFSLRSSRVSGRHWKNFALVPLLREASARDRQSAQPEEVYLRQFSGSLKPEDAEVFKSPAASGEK", "details": "cited from earlier work"}, "TRPV4": {"target": "TRPV4 (Homo sapiens, UniProt Q9HBA0)", "sequence (Q9HBA0 whole entry, species assumed)": "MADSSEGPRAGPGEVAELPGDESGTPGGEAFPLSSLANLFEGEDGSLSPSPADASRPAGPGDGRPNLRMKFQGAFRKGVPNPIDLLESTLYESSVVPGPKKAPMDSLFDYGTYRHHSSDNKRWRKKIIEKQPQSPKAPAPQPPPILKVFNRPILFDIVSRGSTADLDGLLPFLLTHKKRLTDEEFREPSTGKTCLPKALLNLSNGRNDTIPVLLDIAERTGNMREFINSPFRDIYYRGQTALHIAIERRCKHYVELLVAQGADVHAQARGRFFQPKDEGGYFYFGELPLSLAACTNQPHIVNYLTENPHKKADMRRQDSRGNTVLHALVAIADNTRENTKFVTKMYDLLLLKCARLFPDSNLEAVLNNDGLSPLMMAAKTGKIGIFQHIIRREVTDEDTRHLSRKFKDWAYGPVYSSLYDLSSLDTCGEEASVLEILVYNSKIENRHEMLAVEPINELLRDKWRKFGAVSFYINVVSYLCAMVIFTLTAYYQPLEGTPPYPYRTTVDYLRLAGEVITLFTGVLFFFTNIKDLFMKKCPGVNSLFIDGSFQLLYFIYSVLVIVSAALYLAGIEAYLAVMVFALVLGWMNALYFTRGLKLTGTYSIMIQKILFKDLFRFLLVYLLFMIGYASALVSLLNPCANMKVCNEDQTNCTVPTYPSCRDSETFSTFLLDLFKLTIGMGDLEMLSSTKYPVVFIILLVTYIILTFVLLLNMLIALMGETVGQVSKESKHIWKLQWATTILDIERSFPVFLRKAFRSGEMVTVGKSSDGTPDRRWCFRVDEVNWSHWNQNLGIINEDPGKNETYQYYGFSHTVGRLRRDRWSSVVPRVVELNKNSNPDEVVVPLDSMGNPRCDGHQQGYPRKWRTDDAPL", "details": "common TRP inhibitor; TRPV4 activated by heat (36 to 40° C.) or agonist; cited from earlier work"}}, "data": [{"compound": "CC(C)c1ccc(NC(=O)Cn2cnc3c2c(=O)n(C)c(=O)n3C)cc1", "note": "[HC030031, 2-(1,3-dimethyl-2,6-dioxo-1,2,3,6-tetrahydro-7H-purin-7-yl)-N-(4-isopropylphenyl)acetoamide]", "values": [{"measurement": "Effect on barrier recovery acceleration by allyl isothiocyanate or cinnamaldehyde", "setting": "TRPA1 [1]; pretreatment with 50 μM antagonist, FIG. 1", "value": "inhibited"}, {"measurement": "Effect on barrier recovery acceleration by 1 minute of cooling (10 to 15° C.)", "setting": "TRPA1 [1]; pretreatment with antagonist, FIG. 2", "value": "inhibited"}, {"measurement": "Effect on low-temperature-accelerated secretion of lamellar bodies", "setting": "TRPA1 [2]", "value": "inhibited"}]}, {"compound": "C=CCN=C=S", "note": "[allyl isothiocyanate]", "values": [{"measurement": "Barrier recovery (TEWL recovery rate)", "setting": "TRPA1 [1]; FIG. 1", "value": "accelerated"}]}, {"compound": "COc1cc(CNC(=O)CCCC/C=C/C(C)C)ccc1O", "note": "[capsaicin]", "values": [{"measurement": "Repair of the skin barrier", "setting": "TRPV1; TRPV1 activated after destroying the skin barrier", "value": "delayed"}]}, {"compound": "Oc1cc2c(cc1O)CN(C(=S)NCCc1ccc(Cl)cc1)CCC2", "note": "[capsazepine]", "values": [{"measurement": "Effect on delay of barrier repair caused by TRPV1 activation", "setting": "TRPV1; TRPV1 antagonist", "value": "inhibited"}]}, {"compound": "O=CC=Cc1ccccc1", "note": "[cinnamaldehyde]", "values": [{"measurement": "Barrier recovery (TEWL recovery rate)", "setting": "TRPA1 [1]; FIG. 1", "value": "accelerated"}]}, {"compound": "N.N.N.N.N.N.N.N.N.N.N.N.N.N.[Cl-].[Cl-].[Cl-].[Cl-].[Cl-].[Cl-].[O-2].[O-2].[Ru+3].[Ru+3].[Ru+4]", "note": "[ruthenium red]", "values": [{"measurement": "Effect on barrier repair acceleration by TRPV4 activation", "setting": "TRPV4", "value": "inhibited"}]}]}
